This data set in a line: long-term stability study, chemical purity by HPLC. In kind it is physicochemical. Conditions: for chemical degradation: up to 15 months, in words. Here is the method:
The physical and chemical stability study was performed on the compounds of Chemical Formula 2 and Chemical Formula 1 (for reference purposes). The long-term stability study was conducted at defined temperatures and relative humidity levels (25° C./60% relative humidity (RH) and 40° C./75% RH). At regular intervals, a solid sample was analyzed by XRPD, TGMS and HPLC.
The results of the chemical purity determination for the compounds of Chemical Formula 1 and Chemical Formula 2 after 1-, 3- and 15-month exposure to 25° C./60% RH and 40° C./75% RH is presented in FIGS. 4 and 5.

Consider `CN1CCN(Cc2ccc(-c3cnc(N4CCOC(Cn5nnc6ncc(-c7cnn(C)c7)nc65)C4)nc3)cc2)CC1.O=C(O)/C=C\C(=O)O` (stereo not drawn) [Chemical Formula 2], for which the “chemical purity greater than the free base form” value (15 months at 40° C. and 75% relative humidity) is reported as “at least 4.7%”. The chemical degradation result by setting is: (25° C./60% RH) “did not show significant chemical degradation”; (40° C./75% RH) “remained chemically stable up to 15 months”.

For the origin of these results see patent publication US11987582B2, “Maleate salts of triazolopyrazine derivatives, compositions, methods of use, and processes of manufacturing the same” (ABION Inc, priority 2021, dated 2024).
